Results reported in patent publication US6498139B1, “Remedies for diseases caused by insulin resistance” (Daiichi Pharmaceutical Co., Ltd., priority 1997, dated 2002).

Test system: 14-3-3 protein binding to IRS-1
Test: Amount of 14-3-3 protein binding to IRS-1 in HepG2 hepatoma cells overexpressing IRS-1
Type: cell-based
Settings: IRS-1 overexpressed by adenovirus expression system

Compound	amount of 14-3-3 protein binding to IRS-1
insulin	not changed
C=C1[C@@H](O)[C@@H]2O[C@]3(CC[C@H](/C=C/[C@@H](C)[C@@H]4CC(C)=C[C@@]5(O[C@H](C[C@@](C)(O)C(=O)O)CC[C@H]5O)O4)O3)CC[C@H]2O[C@@H]1[C@@H](O)C[C@H](C)[C@H]1O[C@@]2(CCCCO2)CC[C@H]1C [okadaic acid]	significantly increased
